Assay results from PubChem BioAssay AID248 (DTP/NCI, 2004).
Values joined by “and” are separate entries in the source; they are usually repeats but may differ in a detail not shown here. Equal entries are not always repeated. Inconclusive results and toxic doses are left out. Square brackets hold non-standard residues; d marks the D form. Peptide text beside a SMILES is read from it. * marks the point of attachment. ξ: configuration not given here. ξL = CC(C)CC(N)C(=O)O; ClAc = O=C(CCl)*

Test system: L1210 leukemia ip in BDF1 mice, survival T/C
Experiment: NCI In Vivo Anticancer Drug Screen. Data for tumor model L1210 Leukemia (intraperitoneal) in B6D2F1 (BDF1) mice
Details: endpoint: mean survival time, higher = longer survival
In short: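 Mice bearing the transplanted tumor received compound or vehicle. Survival of the treated group was divided by that of the vehicle-treated control group to give the ratio.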

[1] = dose: 100.0 mg/kg/injection, schedule: Q04DX003 (ip), vehicle: saline with Tween-80
[2] = dose: 200.0 mg/kg/injection, schedule: Q04DX003 (ip), vehicle: saline with Tween-80
[3] = dose: 400.0 mg/kg/injection, schedule: Q04DX003 (ip), vehicle: saline with Tween-80
[4] = dose: 100.0 mg/kg/injection, schedule: Q01DX001 (ip), vehicle: saline
[5] = dose: 100.0 mg/kg/injection, schedule: Q01DX009 (ip), vehicle: Klucel (hydroxypropylcellulose) (HPC)
[6] = dose: 100.0 mg/kg/injection, schedule: Q04DX003 (ip), vehicle: Klucel (hydroxypropylcellulose) (HPC)
[7] = dose: 200.0 mg/kg/injection, schedule: Q01DX009 (ip), vehicle: Klucel (hydroxypropylcellulose) (HPC)
[8] = dose: 200.0 mg/kg/injection, schedule: Q04DX003 (ip), vehicle: Klucel (hydroxypropylcellulose) (HPC)
[9] = dose: 400.0 mg/kg/injection, schedule: Q01DX009 (ip), vehicle: Klucel (hydroxypropylcellulose) (HPC)
[10] = dose: 400.0 mg/kg/injection, schedule: Q04DX003 (ip), vehicle: Klucel (hydroxypropylcellulose) (HPC)
[11] = dose: 25.0 mg/kg/injection, schedule: Q04DX003 (ip), vehicle: other
[12] = dose: 50.0 mg/kg/injection, schedule: Q04DX003 (ip), vehicle: other
[13] = dose: 100.0 mg/kg/injection, schedule: Q04DX003 (ip), vehicle: other

SMILES: CN(C)C1=C(N2CC2)C(=O)C(N(C)C)=C(N2CC2)C1=O
- T/C (dose: 0.09 mg/kg/injection, schedule: Q01DX001 (ip), vehicle: saline): 107 % of control
- T/C (dose: 0.09 mg/kg/injection, schedule: Q01DX009 (ip), vehicle: saline): 93 % of control and 116 % of control
- T/C (dose: 0.09 mg/kg/injection, schedule: Q04DX003 (ip), vehicle: saline): 94 % of control and 107 % of control
- T/C (dose: 0.18 mg/kg/injection, schedule: Q01DX001 (ip), vehicle: saline): 108 % of control
- T/C (dose: 0.18 mg/kg/injection, schedule: Q01DX009 (ip), vehicle: saline): 96 % of control and 108 % of control
- T/C (dose: 0.37 mg/kg/injection, schedule: Q01DX001 (ip), vehicle: saline): 97 % of control
- T/C (dose: 0.37 mg/kg/injection, schedule: Q01DX009 (ip), vehicle: saline): 114 % of control and 116 % of control
- T/C (dose: 0.75 mg/kg/injection, schedule: Q01DX001 (ip), vehicle: saline): 98 % of control
- T/C (dose: 0.75 mg/kg/injection, schedule: Q01DX009 (ip), vehicle: saline): 110 % of control
- T/C (dose: 1.5 mg/kg/injection, schedule: Q01DX001 (ip), vehicle: saline): 115 % of control
- T/C (dose: 1.5 mg/kg/injection, schedule: Q01DX009 (ip), vehicle: saline): 93 % of control

SMILES: CCN(CC)CCNC1CCCCC1
- T/C [1]: 94 % of control

SMILES: CN(C)c1ccc(NC(=O)/C=C/C(=O)O)cc1
- T/C [1]: 108 % of control
- T/C [2]: 101 % of control
- T/C [3]: 101 % of control

SMILES: C=CCN(CC=C)P(=O)(N(CC=C)CC=C)N1CC1
- T/C (dose: 3.0 mg/kg/injection, schedule: Q01DX015 (ip), vehicle: saline): 151 % of control
- T/C (dose: 5.0 mg/kg/injection, schedule: Q01DX001 (ip), vehicle: saline): 117 % of control
- T/C (dose: 5.0 mg/kg/injection, schedule: Q01DX015 (ip), vehicle: saline): 155 % of control
- T/C (dose: 7.0 mg/kg/injection, schedule: Q01DX015 (ip), vehicle: saline): 173 % of control
- T/C (dose: 10.0 mg/kg/injection, schedule: Q01DX001 (ip), vehicle: saline): 117 % of control
- T/C (dose: 11.0 mg/kg/injection, schedule: Q01DX015 (ip), vehicle: saline): 178 % of control
- T/C [4]: 175 % of control

SMILES: Cc1cc2c(c3oc(C4(C)OC4C4OC4C)cc(=O)c13)C(=O)c1c(O)c(C3CC(C)(N(C)C)C(O)C(C)O3)cc(C3CC(N(C)C)C(O)C(C)O3)c1C2=O (stereo not given)
- T/C (dose: 0.06 mg/kg/injection, schedule: Q01DX009 (ip), vehicle: other): 118 % of control
- T/C (dose: 0.06 mg/kg/injection, schedule: Q01DX009 (ip), vehicle: saline): 114 % of control
- T/C (dose: 0.12 mg/kg/injection, schedule: Q01DX009 (ip), vehicle: other): 95 % of control
- T/C (dose: 0.12 mg/kg/injection, schedule: Q01DX009 (ip), vehicle: saline): 86 % of control
- T/C (dose: 0.24 mg/kg/injection, schedule: Q01DX009 (ip), vehicle: saline): 88 % of control
- T/C (dose: 1.5 micrograms/kg/injection, schedule: Q01DX015 (ip), vehicle: saline): 115 % of control
- T/C (dose: 3.0 micrograms/kg/injection, schedule: Q01DX015 (ip), vehicle: saline): 114 % of control
- T/C (dose: 4.0 micrograms/kg/injection, schedule: Q01DX001 (ip), vehicle: carboxymethylcellulose (CMC)): 110 % of control
- T/C (dose: 6.0 micrograms/kg/injection, schedule: Q01DX015 (ip), vehicle: saline): 117 % of control
- T/C (dose: 9.0 micrograms/kg/injection, schedule: Q01DX001 (ip), vehicle: carboxymethylcellulose (CMC)): 109 % of control
- T/C (dose: 12.0 micrograms/kg/injection, schedule: Q01DX015 (ip), vehicle: saline): 117 % of control
- T/C (dose: 18.0 micrograms/kg/injection, schedule: Q01DX001 (ip), vehicle: carboxymethylcellulose (CMC)): 112 % of control
- T/C (dose: 25.0 micrograms/kg/injection, schedule: Q01DX Z (ip), vehicle: carboxymethylcellulose (CMC)): 107 % of control
- T/C (dose: 37.0 micrograms/kg/injection, schedule: Q01DX001 (ip), vehicle: carboxymethylcellulose (CMC)): 112 % of control
- T/C (dose: 50.0 micrograms/kg/injection, schedule: Q01DX Z (ip), vehicle: carboxymethylcellulose (CMC)): 98 % of control
- T/C (dose: 75.0 micrograms/kg/injection, schedule: Q01DX001 (ip), vehicle: carboxymethylcellulose (CMC)): 121 % of control
- T/C (dose: 96.0 micrograms/kg/injection, schedule: Q01DX015 (ip), vehicle: saline): 108 % of control

SMILES: Cc1ccc(C)c(OC(=O)NC2CCCCC2)c1
- T/C [5]: 93 % of control
- T/C [6]: 101 % of control
- T/C [7]: 92 % of control
- T/C [8]: 104 % of control
- T/C [9]: 95 % of control
- T/C [10]: 98 % of control

SMILES: COc1ccc(C(=O)Nc2ccccc2)cc1NC(=O)NC(C)=O
- T/C [5]: 97 % of control
- T/C [7]: 106 % of control
- T/C [9]: 100 % of control

SMILES: CC(C)CC(NC(=O)CCl)C(=O)NCC(=O)O (stereo not given) (ClAc-[ξL]-Gly-OH)
- T/C (dose: 100.0 mg/kg/injection, schedule: Q01DX009 (ip), vehicle: saline with Tween-80): 94 % of control
- T/C [1]: 101 % of control
- T/C [2]: 95 % of control
- T/C [3]: 103 % of control

SMILES: Cc1ccc(C(=O)[O][Hg][CH2]C2COC([CH2][Hg][O]C(=O)c3ccc(C)cc3)CO2)cc1 (stereo not given)
- T/C (dose: 3.12 mg/kg/injection, schedule: Q01DX009 (ip), vehicle: Klucel (hydroxypropylcellulose) (HPC)): 93 % of control
- T/C (dose: 6.25 mg/kg/injection, schedule: Q01DX009 (ip), vehicle: Klucel (hydroxypropylcellulose) (HPC)): 93 % of control
- T/C (dose: 6.25 mg/kg/injection, schedule: Q01DX009 (ip), vehicle: saline with Tween-80): 113 % of control
- T/C (dose: 12.5 mg/kg/injection, schedule: Q01DX009 (ip), vehicle: Klucel (hydroxypropylcellulose) (HPC)): 94 % of control
- T/C (dose: 12.5 mg/kg/injection, schedule: Q01DX009 (ip), vehicle: saline with Tween-80): 100 % of control
- T/C (dose: 25.0 mg/kg/injection, schedule: Q01DX009 (ip), vehicle: saline with Tween-80): 105 % of control
- T/C [11]: 92 % of control
- T/C [12]: 90 % of control
- T/C [13]: 95 % of control

SMILES: CN(CCO)N=Nc1ccccc1C#N
- T/C (dose: 12.5 mg/kg/injection, schedule: Q01DX009 (ip), vehicle: other): 103 % of control
- T/C (dose: 25.0 mg/kg/injection, schedule: Q01DX009 (ip), vehicle: other): 91 % of control
- T/C [11]: 95 % of control
- T/C [12]: 93 % of control
- T/C [13]: 95 % of control
- T/C (dose: 200.0 mg/kg/injection, schedule: Q04DX003 (ip), vehicle: other): 98 % of control
- T/C (dose: 400.0 mg/kg/injection, schedule: Q04DX003 (ip), vehicle: other): 98 % of control

SMILES: COC(=O)c1c(Cl)c(Cl)cc(Cl)c1Cl
- T/C (dose: 100.0 mg/kg/injection, schedule: Q01DX009 (ip), vehicle: saline sonified): 106 % of control
- T/C [6]: 93 % of control
- T/C (dose: 200.0 mg/kg/injection, schedule: Q01DX009 (ip), vehicle: saline sonified): 113 % of control
- T/C [8]: 98 % of control
- T/C (dose: 400.0 mg/kg/injection, schedule: Q01DX009 (ip), vehicle: saline sonified): 107 % of control
- T/C [10]: 106 % of control

SMILES: O=[N+]([O-])c1ccccc1CSc1ncnc2nc[nH]c12
- T/C (dose: 132.0 mg/kg/injection, schedule: Q04DX003 (ip), vehicle: saline with Tween-80): 102 % of control
- T/C [2]: 100 % of control
- T/C (dose: 300.0 mg/kg/injection, schedule: Q04DX003 (ip), vehicle: saline with Tween-80): 105 % of control

SMILES: CSc1ncnc2c1nnn2C1OC(CO)C(O)C1O (stereo not given)
- T/C (dose: 12.5 mg/kg/injection, schedule: Q01DX001 (ip), vehicle: saline): 97 % of control
- T/C (dose: 25.0 mg/kg/injection, schedule: Q01DX001 (ip), vehicle: saline): 103 % of control
- T/C (dose: 50.0 mg/kg/injection, schedule: Q01DX001 (ip), vehicle: saline): 115 % of control
- T/C (dose: 75.0 mg/kg/injection, schedule: Q01DX001 (ip), vehicle: saline): 114 % of control
- T/C [4]: 110 % of control
- T/C (dose: 150.0 mg/kg/injection, schedule: Q01DX001 (ip), vehicle: saline): 110 % of control

SMILES: CCOC(=O)N1CCC(=C(C#N)c2ccccc2)CC1
- T/C [6]: 92 % of control
- T/C [8]: 92 % of control
